pIC50: −log10 of the molar value. Converted amounts (≈) assume the structure as drawn. Like-named read-outs stand apart in the source and are kept apart here.
Tests used:
MT-4 cells = test: cytotoxicity in MT-4 cells (MTT, culture medium in place of HIV); format: cell-based; settings: human, mt-4 cells, 120 h
In short: (§1)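 MT-4 cells (3.5×10^4 per well) exposed to diluted compound with culture medium added instead of HIV, 5 days at 37° C in CO2. MTT added for 1 h, formazan dissolved in Triton X-100/acidified isopropanol. OD read at 560 nm (690 nm reference) and compared with control.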

HIV (HTLV-IIIB strain) = test: microbe, parasite or virus in culture; format: cell-based; settings: Human immunodeficiency virus 1, IIIB, MT4, 120 h
In short: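 MT-4 cells (3.5×10^4 per well) were infected with HIV at 60 pfu per well in the presence of diluted compound and incubated for 5 days at 37° C. Surviving cells were then measured by MTT reduction, with the formazan dissolved in acidified isopropanol containing Triton X-100.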

[1] = cytotoxicity in MT-4 cells (MTT, culture medium in place of HIV); format: cell-based; settings: human
In short: as §1

[2] = target: T1, purified recombinant HIV-1 reverse transcriptase (Human immunodeficiency virus type 1 group M subtype B, UniProt P04585); test: reverse transcriptase inhibition, poly(rA)/(dT) template primer, [3H]dTTP uptake; format: biochemical
T1 construct: purified recombinant HIV-1 reverse transcriptase; made in house; host or cells: Escherichia coli
In short: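 Inhibition reported as percent reduction of [3H]dTTP incorporation relative to solvent control, after 1 h at 37 °C at pH 8.3. Recombinant RT from E. coli, poly(rA) template with oligo(dT) primer, 4 μM unlabeled dTTP as substrate; product collected on DEAE filter mats.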

[3] = MT-4 cells, no virus, 37° C., 5 days, MTT, Table 3, read-out: CC50
[4] = MT-4 cells, 60 pfu HIV per well, 37° C., 5 days, MTT, Tables 1 and 2, read-out: EC50

| Structure (SMILES) | EC50 (head of Table 4; CC50 per Test Example 2) (MT-4 cells) [µg/mL] | EC50 (HIV (HTLV-IIIB strain)) [µg/mL] | CC50 at 120 h [1, 3] [µg/mL] | pIC50 [2] | EC50 (HIV (HTLV-IIIB strain); [4]) [µg/mL] | CC50 at 120 h ([1]; mt-4 cells) [µg/mL] |
| --- | --- | --- | --- | --- | --- | --- |
| CC(O)Cn1c(CO)nc(C(C)C)c1Sc1cc(Cl)cc(Cl)c1 (stereo not shown) [Compound 141a, 5-(3,5-dichlorophenylthio)-2-hydroxymethyl-1-(2-hydroxypropyl)-4-isopropyl-1H-imidazole] | 12.5 to 25 | – | – | – | – | – |
| CCn1c(CO)nc(C(C)C)c1Sc1cc(F)cc(F)c1 [Compound I-36, [5-(3,5-difluorophenylthio)-1-ethyl-4-isopropyl-1H-imidazol-2-yl]methanol] | – | 0.002 (≈ 0.0064 µM) | 10 to 100 (≈ 32 to 320 µM) | 6.24 | – | – |
| CCn1c(CN)nc(C(C)C)c1Sc1cc(Cl)cc(Cl)c1 [Compound I-71, 2-aminomethyl-5-(3,5-dichlorophenylthio)-1-ethyl-4-isopropyl-1H-imidazole] | – | – | 1 to 10 (≈ 2.9 to 29 µM) | 6.01 | 0.008 (≈ 0.0232 µM) | – |
| COC(=O)NCc1nc(C(C)C)c(Sc2cc(Cl)cc(Cl)c2)n1C [Compound I-91, 5-(3,5-dichlorophenylthio)-4-isopropyl-1-methyl-2-methoxycarbonylaminomethyl-1H-imidazole] | – | – | 6.3 to 12.5 (≈ 16.2 to 32.2 µM) | 6.06 | 0.06 (≈ 0.155 µM) | – |
| Cc1cc(C)cc(Sc2c(C(C)C)nc(C)n2Cc2ccccc2)c1 [Compound I-4, 1-benzyl-5-(3,5-dimethylphenylthio)-4-isopropyl-2-methylimidazole] | – | – | 12.5 (≈ 35.7 µM) | 5.31 | 0.016 (≈ 0.0456 µM) | – |
| CC(C)c1nc(CN)n(Cc2cccnc2)c1Sc1cc(Cl)cc(Cl)c1 [Compound I-94, 2-aminomethyl-5-(3,5-dichlorophenylthio)-4-isopropyl-1-(pyridin-3-yl)methyl-1H-imidazole] | – | – | 12.5 to 25 (≈ 30.7 to 61.4 µM) | 5.33 | 0.03 (≈ 0.0736 µM) | – |
| CC(C)c1nc(CN)n(C)c1Sc1cccc(Cl)c1.Cl [Compound I-69, 2-aminomethyl-5-(3-chlorophenylthio)-4-isopropyl-1-methyl-1H-imidazole hydrochloride] | – | – | – | 5.16 | 0.25 | 6.3 |
| CC(C)c1nc(CO)n(C)c1Sc1cc(Cl)cc(Cl)c1 [Compound I-8, [5-(3,5-dichlorophenylthio)-4-isopropyl-1-methyl-1H-imidazol-2-yl]methanol] | – | – | 12.5 (≈ 37.7 µM) | 5.52 | 0.016 (≈ 0.0483 µM) | – |
| CC(C)c1nc(CCOCc2ccccc2)n(CCO)c1Sc1cc(Cl)cc(Cl)c1 [Compound 130d, 2-(2-(2-benzyloxyethyl)-5-(3,5-dichlorophenylthio)-4-isopropyl-1H-imidazol-1-yl)ethanol] | – | – | – | < 3.67 | 0.5 to 1 (≈ 1.07 to 2.15 µM) | 6.3 (≈ 13.5 µM) |
| CC(C)c1nc(CCO)n(Cc2cccc(N)c2)c1Sc1cc(Cl)cc(Cl)c1 [Compound I-141, I-(m-aminobenzyl)-5-(3,5-dichlorophenylthio)-2-hydroxyethyl-4-isopropyl-1H-imidazole] | – | – | – | 5.38 | < 0.008 | 25 to 50 (≈ 57.3 to 115 µM) |
| CC(=N)NCc1nc(C(C)C)c(Sc2cc(Cl)cc(Cl)c2)n1C [Compound I-84] | – | – | 1 to 10 (≈ 2.69 to 26.9 µM) | < 3.57 | 1 (≈ 2.69 µM) | – |
| CC(C)c1nc(COC(N)=O)n(CC(F)(F)F)c1Sc1cc(Cl)cc(Cl)c1 [Compound I-55, 2-carbamoyloxymethyl-5-(3,5-dichlorophenylthio)-4-isopropyl-1-(1,1,1-trifluoroethyl)-1H-imidazole] | – | – | 10 to 100 (≈ 22.6 to 226 µM) | 5.25 | 0.008 (≈ 0.0181 µM) | – |
